{
  "source": "patent US20260071096A1",
  "about": "“BONDED ABRASIVE ARTICLES AND METHODS OF MANUFACTURE” (3M INNOVATIVE PROPERTIES COMPANY, priority 2020, published 2026)",
  "origin": "cited, not measured here",
  "conditions": "species and route not given",
  "data": [
    {"smiles": "c1ccc2ccccc2c1", "note": "[Naphthalene, naphthalene]", "values": [
      {"measurement": "LD50 (mean lethal dose)", "value": 490, "unit": "mg/kg"}
    ]}
  ]
}
